Experimental data reported in article PMC9321663, “The DevTox Germ Layer Reporter Platform: An Assay Adaptation of the Human Pluripotent Stem Cell Test” (Toxics, 2022).
Read-outs that look alike come from different tables or passages of the source.

What was measured:
[1] = test system: RUES2-GLR cells; assay: DMSO tolerance test under directed endoderm differentiation (SOX17-positive cells, cell count); assay type: cell-based, human; details: DMSO 0.2%
Method: To identify biomarker-positive populations during directed endoderm differentiation, RUES2-GLR cells were evaluated by high-content confocal imaging. […] A qualitative loss of SOX2 expression and increased SOX17 expression were evident, indicating loss in pluripotency and commitment to definitive endoderm, respectively (Figure 2A).

[2] = test system: SOX17 (endoderm marker) in RUES2-GLR cells; assay: DevTox GLR-Endo assay: decrease in percent SOX17-positive cells (AEID 3094, Sox17_dn); details: for Hit Call: Table S2, SOX17-positive cells, cutoff 3*bmad; for DevTox ACC: Table S2, percent SOX17-positive cells; for DevTox-GLR Endo ACC: activity concentration at cutoff, SOX17-positive cells; for HIT−CALL: tcpl plot AEID3094, COFF 20.3
In short: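 Readouts are loss of SOX17-positive fraction and reduced cell number in endoderm-differentiating RUES2-GLR cells after 48 h of chemical exposure. Controls: undifferentiated and differentiated cells, 0.2% DMSO, and 1 µM SB431542; at least four biological replicates.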

[3] = in vitro; details: human
[4] = test system: RUES2-GLR cells; assay: in vitro; details: for Emax: Homo sapiens, read-out: Cell Count % Max Inhibition; for Cell Count ACC / DevTox-GLR Endo CC: human, 48 h
[5] = test system: SOX17 (endoderm marker) in RUES2-GLR cells; assay: DevTox GLR-Endo assay: increase in percent SOX17-positive cells (AEID 3093, Sox17_up); assay type: cell-based, human; details: for Emax: Homo sapiens; for HIT−CALL: tcpl plot AEID3093, COFF 20.3
Method: (§1) The total test chemical incubation period was 48 h.
(§2) (Supplementary Materials).

[6] = test system: SOX17 in H9 human ESC line; details: SOX17 half-maximal inhibition concentration; read-out: hPST IC50; cited from earlier work
[7] = test system: H9 human ESC line; details: cited from earlier work
[8] = test system: o/c ratio in H9 embryonic stem cells; details: Teratogen Index, o/c ratio; cited from earlier work
[9] = test system: H9 embryonic stem cells; details: concentration at cell viability cutoff; cited from earlier work
[10] = cited from earlier work; for Development Toxicant Classification: Table S2; for Classification: developmental toxicant classification (Teratogen / Non-Teratogen) of reference and training chemicals, ref DOI per chemical: 10.1093/toxsci/kft239, 10.1093/toxsci/kfaa014, 10.1177/026119290203000204, 10.1038/s41598-020-59542-x; for DT Class.: developmental toxicant classification
[11] = test system: SOX2 (ectoderm and pluripotency marker) in RUES2-GLR cells; assay: DevTox GLR-Endo assay: increase in percent SOX2-positive cells (AEID 3095, Sox2_up); details: for AC50 / Emax: Homo sapiens; for AC50: read-out: ga (winning model); for Emax: read-out: tp (winning model); for MAX_MEAN: tcpl plot AEID3095, maximum mean response; for MAX_MED: tcpl plot AEID3095, maximum median response;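 for all read-outs here: cells exposed to test chemicals for 48 h in total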
[12] = test system: BRA (mesoderm marker) in RUES2-GLR cells; assay: DevTox GLR-Endo assay: increase in percent BRA-positive cells (AEID 3096, Bra_up); assay type: cell-based, human
Method: as §1, §2

[13] = test system: H9 ESCs; details: global gene expression at 6, 96 and 192 h; cited from earlier work
[14] = Homo sapiens, 48 h, read-out: DevTox-GLR Endo AC50 (µM), SOX17 half-maximal activity concentration, 48 h exposure
[15] = Homo sapiens, read-out: DevTox % Max Inhibition
[16] = Homo sapiens, read-out: MAX_MEAN
[17] = Homo sapiens, read-out: MAX_MED
[18] = Homo sapiens, read-out: ga (winning model), tcpl plot AEID3094, gain parameter of winning curve fit (log concentration, µM axis), hit calls only (converted)
[19] = Homo sapiens, read-out: tp (winning model)
[20] = tcpl plot AEID3093, maximum mean response, read-out: MAX_MEAN
[21] = tcpl plot AEID3093, maximum median response, read-out: MAX_MED
[22] = cytotoxicity half-maximal concentration
[23] = chemicals common with quickPredict

For `C[S+](C)[O-]` [DMSO, dimethyl sulfoxide], the “effect on cell counts (in words)” value [1] was “without affecting cell counts” and the “reduction of the SOX17 population” value [1] was 19.5%.

Molecule `O=c1[nH]cc(F)c(=O)[nH]1` [5-Fluorouracil] has an AC50 [2, 14] of 8.48 µM, an Emax [2, 15] of 102% and an Emax [2, 16] of 102%. It also gave an Emax [2, 17] of 102%, an AC50 [2, 18] of 8.49 µM and an Emax [2, 19] of 102%. The “Hit Call” value [2] was “Positive”, the “DevTox ACC” value ([2]; 48 h exposure) was 7.071 µM and the “DevTox-GLR Endo ACC” value ([2]; 48 h exposure) was 7.07 µM. The “HIT−CALL” value [2] was 1, the CC50 at 48 h [3] was 5.72 µM and the “effect on cell count (in words)” value [4] was “significant decreases in cell count”. The Emax [4] was 91%, the “Cell Count ACC” value [4] was 4.179 µM and the “DevTox-GLR Endo CC” value [4] was 20.34 µM. For the same molecule, the Emax [5, 20] was 3.38%, the Emax [5, 21] was 4.48% and the “HIT−CALL” value [5] was 0. For the same molecule, the IC50 [6] was 0.6 µM, the “hPST TC50” value [7, 22] was 0.7 µM and the “hPST TC50” value ([7]; hPST cytotoxicity) was 0.7 µM. For the same molecule, the “quickPredict TI” value [8] was 2.02 µM, the “quickPredict CV” value [9] was 1.45 µM and the “Development Toxicant Classification” value [10] was “Positive”. For the same molecule, the Classification [10] was “Teratogen”, the “DT Class.” value ([10]; chemicals common with hPST) was “Pos” and the “DT Class.” value [10, 23] was “Pos”. It also gave an AC50 [11] of 18.6 µM, an Emax [11] of 5.33% and an MAX_MEAN [11] of 6.64 Percent Activity. For the same molecule, the MAX_MED [11] was 5.57 Percent Activity.

With `CC1=C(/C=C/C(C)=C/C=C/C(C)=C/C(=O)O)C(C)(C)CCC1` the IC50 ([2]; Homo sapiens, 48 h) was 0.16 µM, the AC50 [2, 14] was 0.1 µM and the Emax [2, 15] was 101%. The Emax [2, 16] was 101%, the Emax [2, 17] was 101% and the AC50 [2, 18] was 0.101 µM. The Emax [2, 19] was 99.2%, the “Hit Call” value [2] was “Positive” and the “DevTox ACC” value ([2]; 48 h exposure) was 0.04166 µM. The “DevTox-GLR Endo ACC” value ([2]; 48 h exposure) was 0.04 µM, the “% Max Inhibition” value ([2]; maximum inhibition of SOX17-positive cells, reference chemical testing, 48 h exposure) was 93% and the “HIT−CALL” value [2] was 1. For the same molecule, the CC50 at 48 h ([3]; RUES2-GLR cells under directed endoderm differentiation) was 5.53 µM, the Emax [4] was 97.6% and the “Cell Count ACC” value [4] was 3.839 µM. For the same molecule, the “DevTox-GLR Endo CC” value [4] was 3.84 µM, the Emax [5, 20] was 4.3% and the Emax [5, 21] was 3.82%. The “HIT−CALL” value [5] was 0, the “increase of BRA protein expression (in words)” value ([12]; AEID 3096, 48 h exposure) was “lack of significant BRA perturbation” and the IC50 [6] was 0.07 µM. For the same molecule, the “hPST TC50” value [7, 22] was 33 µM, the “hPST TC50” value ([7]; hPST cytotoxicity) was 33 µM and the “quickPredict TI” value [8] was 0.003 µM. The “toxicological tipping point concentration” value [13] was 17 ± 11 nM, the “Development Toxicant Classification” value [10] was “Positive” and the Classification [10] was “Teratogen”. The “DT Class.” value ([10]; chemicals common with hPST) was “Pos”, the “DT Class.” value [10, 23] was “Pos” and the “Developmental Toxicant Classification” value ([10]; reference chemicals) was “Positive”. For the same molecule, the AC50 [11] was 87.1 µM, the Emax [11] was 71.4% and the MAX_MEAN [11] was 50.7 Percent Activity. The MAX_MED [11] was 53.1 Percent Activity.

With `CCCC(CCC)C(=O)O` [Valproic Acid] the “SOX17 ACC relative to cytotoxic concentration (in words)” value [2] was “below cytotoxic concentrations”, the AC50 [2, 14] was 124 µM and the Emax [2, 15] was 22.3%. The Emax [2, 16] was 22%, the Emax [2, 17] was 22.3% and the AC50 [2, 18] was 123 µM. The Emax [2, 19] was 29.3%, the “Hit Call” value [2] was “Positive” and the “DevTox ACC” value ([2]; 48 h exposure) was 177.332 µM. The “DevTox-GLR Endo ACC” value ([2]; 48 h exposure) was 177.33 µM, the “HIT−CALL” value [2] was 1 and the CC50 at 48 h [3] was over 200 µM. For the same molecule, the Emax [4] was 18.1%, the “Cell Count ACC” value [4] was over 200 µM and the Emax [5, 20] was 7.73%. For the same molecule, the Emax [5, 21] was 5.59%, the “HIT−CALL” value [5] was 0 and the “HIT−CALL” value ([12]; tcpl plot AEID3096, COFF 0.774) was 0. The MAX_MEAN ([12]; tcpl plot AEID3096, maximum mean response) was 0.771 Percent Activity, the MAX_MED ([12]; tcpl plot AEID3096, maximum median response) was 0.815 Percent Activity and the IC50 [6] was 2.6 µM. For the same molecule, the “hPST TC50” value [7, 22] was 3.3 µM, the “hPST TC50” value ([7]; hPST cytotoxicity) was 3.3 µM and the “quickPredict TI” value [8] was 155 µM. For the same molecule, the “quickPredict CV” value [9] was 271 µM, the “Development Toxicant Classification” value [10] was “Positive” and the Classification [10] was “Teratogen”. The “DT Class.” value ([10]; chemicals common with hPST) was “Pos”, the “DT Class.” value [10, 23] was “Pos” and the MAX_MEAN [11] was 1.25 Percent Activity. It also gave an MAX_MED [11] of 0.475 Percent Activity.
